Target: T1, EXO1 (Homo sapiens, UniProt Q9UQ84)
T1 construct: made in house; host or cells: Escherichia coli BL21 (RIPL)
T1 sequence (Q9UQ84 1-846): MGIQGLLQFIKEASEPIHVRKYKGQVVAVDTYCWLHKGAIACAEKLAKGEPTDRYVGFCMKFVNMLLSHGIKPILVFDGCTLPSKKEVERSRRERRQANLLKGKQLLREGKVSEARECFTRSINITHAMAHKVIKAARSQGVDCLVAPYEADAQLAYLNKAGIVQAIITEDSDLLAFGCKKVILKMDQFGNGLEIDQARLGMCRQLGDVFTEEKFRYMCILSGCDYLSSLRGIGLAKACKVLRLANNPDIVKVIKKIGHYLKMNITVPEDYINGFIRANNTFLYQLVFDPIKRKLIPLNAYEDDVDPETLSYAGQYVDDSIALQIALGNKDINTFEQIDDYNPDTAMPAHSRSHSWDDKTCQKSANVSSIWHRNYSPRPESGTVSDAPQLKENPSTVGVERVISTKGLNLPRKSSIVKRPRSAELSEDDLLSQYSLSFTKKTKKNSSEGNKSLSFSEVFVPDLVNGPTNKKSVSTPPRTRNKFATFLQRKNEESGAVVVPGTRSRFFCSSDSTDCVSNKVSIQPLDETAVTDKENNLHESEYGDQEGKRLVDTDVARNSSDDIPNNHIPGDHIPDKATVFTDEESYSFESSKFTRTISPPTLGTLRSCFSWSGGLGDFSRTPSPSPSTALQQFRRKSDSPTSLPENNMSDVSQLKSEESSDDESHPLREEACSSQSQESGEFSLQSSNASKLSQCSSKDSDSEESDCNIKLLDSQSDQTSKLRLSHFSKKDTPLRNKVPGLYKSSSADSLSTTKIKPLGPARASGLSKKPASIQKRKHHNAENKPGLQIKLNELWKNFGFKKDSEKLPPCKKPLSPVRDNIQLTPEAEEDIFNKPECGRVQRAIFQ
Test: Nuclease inhibition assay, EXO1 (3′ OH fluorescent DNA substrate, gel readout)
Assay type: biochemical
Settings: 5 nM enzyme, 5 nM 3′ OH substrate, 15 min at 30° C.
Description: In vitro assays were used for the determination of compound's IC50 values for inhibition of individual nucleases, i.e., MUS81/EME1, FEN1, EXO1, and MRE11. To generate IC50 values, concentration of compound was plotted against relative nuclease activity (in %). The dose-response curves were generated from inhibition data, from 5 point serial dilutions of inhibitory compounds, each in triplicate and fitted to a standard sigmoid curve. IC50 values were derived by standard nonlinear regression analysis.
All tested compounds were diluted in 100% DMSO (dimethylsulfoxide) to prepare working stocks with different concentrations. To keep the DMSO concentration constant in every reaction, always 0.5 μl of the compound stock was added to the reaction buffer. The reaction buffer differs depending on the enzyme tested. Also concentration of the compounds in the reaction depends on the particular enzyme, since the inhibitory effect of the compounds vary between the enzymes. Nevertheless, always doubling dilutions in the range 200-0.8 μM was used. The compound was added as the first component in the reaction buffer, followed by the enzyme addition. […]
For this experiment we prepared short fluorescently labeled oligonucleotide-based DNA substrates with specific structures reflecting the biochemical activities of tested individual nucleases (Table 1). […] For visualization, each substrate was labeled by fluorescent dye (fluorescein), which can be detected in the gel using appropriate imaging system (FLA-9000, Fuji) with filters for particular wavelengths (excitation: 485 nm, emission: 535 nm).
Nuclease assays were performed in reaction buffer specific for particular enzyme: MUS81/EME1 (50 mM Tris pH=7.5, 5 mM MgCl2, 1 mM DTT a 100 μg/ml BSA), MRE11 (30 mM Bis-Tris pH=7.0, 50 μg/ml BSA, 1 mM DTT a 250 μM MnCl2), EXO1 and FEN1 (50 mM Tris pH=7.5, 1 mM MgCl2, 1 mM DTT a 100 μg/ml BSA). […] Fluorescently labeled DNA was detected by FLA-9000 scanner (Fuji) and the result was evaluated using Multi-Gauge V3.2 software (Fuji). […]

| Structure (SMILES) | IC50 |
| --- | --- |
| CCc1nn2c(N)c(-c3nc4ccccc4[nH]3)nnc2c1-c1ccc(F)cc1 [Preparative Example 5A] | > 50 µM |
| Nc1c(-c2nc3ccccc3[nH]2)nnc2cc(-c3ccccc3)nn12 [Preparative Example 5C] | > 50 µM |
| Nc1c(-c2nc3ccccc3[nH]2)nnc2cc(-c3cccc4ccccc34)nn12 [Preparative Example 5K] | > 50 µM |
